Residues, ends and D or L forms follow the SMILES beside them.
How the values were obtained:
[1] = tested on: mouse renal ischemia reperfusion; test: Mice renal failure test (mouse renal ischemia reperfusion), mortality; format: in vivo; details: score = animals died - animals in group
Experimental: Dipeptides are tested and compared with PBS (control) in a double blind animal study for a dipeptide's relative ability to aid recovery in a mouse renal ischemia reperfusion or mouse renal failure test. Under inhalation anesthesia, the left kidney with its artery and vein is isolated and occluded for 25 minutes using a microvascular clamp. During surgery, animals are placed on a heating path to maintain body temperature at 37°C. Five minutes before placing the clamp, and 5 minutes before releasing the clamp, dipeptide, dissolved in 0.1 mL of sterile saline, is administered intravenously. After reperfusion of the left kidney the right kidney is removed. Kidney function is assessed by measuring blood urea nitrogen before clamping, and at 2, 24, and 72 hours after reperfusion, by determining mRNA levels for cytokine expression, and such.
In short, in this test, the mice are anesthetized, and one kidney from each mouse is removed. The other kidney is tied off for 25 minutes, and the ischemia levels in the kidney are allowed to increase. Both before and/or after tying off, GLN-containing dipeptide is administered to 8 to 10 different mice per group (dosages vary per group from for example 0.7, 3, 7, 30 and 70 mg dipeptide / kg body mass intravenously). The mortality of the mice is determined for each oligopeptide as well as for example the BUN or creatinine concentration at two hours, 24 hours and 72 hours. Two dipeptides AQ and LQ are for example tested in a dose-response manner in the mice renal failure test. Dipeptides are tested at dosages of 0.7, 3, 7, 30 and 70 mg/kg body weight given intravenously.

TNF-alpha = test: Rat hemorrhagic shock study, liver mRNA by reverse transcription-polymerase chain reaction; format: in vivo, Rats; details: AQ intravenously 0.7 to 70 mg/kg during resuscitation; liver samples 30 minutes after completion of resuscitation
Experimental: (§1) Methods: Rats are randomly assigned to groups. Under isoflurane anesthesia, the femoral artery and vein are cannulated. Hemorrhagic shock is induced by withdrawing blood through the arterial cannula until the mean arterial pressure (MAP) is 25-30 mm Hg and maintained at the level for 30 minutes with further withdrawals. Resuscitation is carried out by giving 21 mL/kg Ringer's lactate (LR) with or without the administration of AQ (intravenously at ranges from 0.7 to 70 mg/kg) and returning the shed blood. Controls are normal (anesthesia only), sham (surgical preparation), and shock (preparation and shock). Rats (n = 80, 10 per group) are killed 30 minutes after completion of resuscitation. Liver samples are collected, and total RNA is isolated for reverse transcription-polymerase chain reaction analysis of mRNA (TNF-a). […] Increased expression of liver mRNA for TNF-alpha is seen after hemorrhagic shock and resuscitation.

Hemorrhagic shock = test: Rat hemorrhagic shock study, recovery of mean arterial pressure; format: in vivo, Rats; details: AQ intravenously 0.7 to 70 mg/kg with Ringer's lactate during resuscitation; compared with the LR group
Experimental: as §1

| Structure (SMILES) | Mortality in mice renal failure experiment 24h ([1]; 0.7 mg/kg intravenously) | Mortality in mice renal failure experiment 72h ([1]; 0.7 mg/kg intravenously) | Mortality in mice renal failure experiment 24h ([1]; 3.0 mg/kg intravenously) | Mortality in mice renal failure experiment 72h ([1]; 3.0 mg/kg intravenously) | Mortality in mice renal failure experiment 24h ([1]; 7.0 mg/kg intravenously) | Mortality in mice renal failure experiment 72h ([1]; 7.0 mg/kg intravenously) | Mortality in mice renal failure experiment 24h ([1]; 30.0 mg/kg intravenously) | Mortality in mice renal failure experiment 72h ([1]; 30.0 mg/kg intravenously) | Mortality in mice renal failure experiment 24h ([1]; 70.0 mg/kg intravenously) | Mortality in mice renal failure experiment 72h ([1]; 70.0 mg/kg intravenously) | expression of liver mRNA for TNF-alpha (TNF-alpha) | MAP recovery (Hemorrhagic shock) |
| --- | --- | --- | --- | --- | --- | --- | --- | --- | --- | --- | --- | --- |
| CC(C)C[C@H](N)C(=O)N[C@@H](CCC(N)=O)C(=O)O [LQ, leucyl-glutamine] (H-Leu-Gln-OH) | 0-9 | 2-9 | 0-10 | 1-9 | 1-10 | 1-10 | 0-10 | 0-9 | 0-8 | 3-9 |  |  |
| C[C@H](N)C(=O)N[C@@H](CCC(N)=O)C(=O)O [AQ, alanyl-glutamine] (H-Ala-Gln-OH) | 0-9 | 2-9 | 0-10 | 1-9 | 0-10 | 0-9 | 0-8 | 1-10 | 0-9 | 1-9 | reduces mRNA expression for TNF-alpha | recovers more quickly |
